Experimental data published in US20150265666A1, “BOTANICAL ANTIMICROBIAL COMPOSITIONS” (THE TRUSTEES OF COLUMBIA UNIVERSITY IN THE CITY OF NEW YORK, priority 2012, published 2015).
“Also recorded” adds a separate entry of the source.

Assays:
S. aureus [1] = experiment: Rapid kill method (10^8 cfu/ml S. aureus), 15 seconds, oral rinse base; assay type: cell-based
Procedure: Synergistic effect of botanical extracts and biguanides (Rapid kill method (108 S. aureus)): The antimicrobial effect of an oral rinse base, containing the ingredients described in table 10 below, were tested against a high concentration of bacteria. In a sterile culture tube, 0.1 ml of S. aureus (10^8 cfu/ml) was treated with 0.9 ml of test mouthrinse for 15 seconds. The reaction was stopped with Drug neutralizing Fluid (DNF) and then further diluted with the same media. 0.5 ml of the dilution was then plated on Tripticase Soy Agar (TSA) and incubated at 37° C. overnight. The colony counts were determined and the log 10 reduction from the control (phosphate-buffered saline (PBS) inoculated with the same culture) was calculated.

S. aureus [2] = experiment: ASTM E 2783-11 protocol, 15 seconds, ingredients in Base A (Example 16); assay type: cell-based; conditions: for Log reduction compared to control: ingredients in Base A; for synergistic activity with chlorhexidine (in words): Experiment 1, Base A
Procedure: The antimicrobial efficacy of a composition comprising biguanides and fennel oil, thyme oil/thymol and/or vanilla oil was tested against S. aureus (10^7 cfu/ml). […] In-vitro study Test organism: S. aureus (10^7 cfu/ml) […] These plates were incubated at 37° C. for 24 hours and the colony counts (cfu)/ml were determined.

[3] = use as oral antiseptic; cited from earlier work
[4] = system: murine fibroblasts cell lines; conditions: cited from earlier work
[5] = system: human dennal, gingival and osteoblastic cell lines; conditions: cited from earlier work
[6] = 0.12% solutions, oral decontamination prior to mechanical intubation; cited from earlier work
[7] = system: methicillin-resistant Staphylococcus aureus (“MRSA”); experiment: MRSA Rapid-Kill Assay (tube-dilution, US FDA-TFM, 15 second exposure); assay type: cell-based
P. aeruginosa = experiment: Agar-plate method: sample spread on TSA, 1 hr, then inoculated; log10 reduction; assay type: cell-based; conditions: Example 3
Procedure: For oral care products, PHMB is preferred because BAC can produce mucosal irritation. PHMB is effective against gram negative bacteria. Therefore P. aeruginosa which is a gram negative organism was used in these tests. An agar-plate method was used/0.5 ml of the test sample was spread on TSA plates and for control PBS was used in the plate. These plates were incubated for 1 hr in the incubator at temperature 37±1° C. After 1 hr, the plates were taken out of the incubator and inoculated with 0.5 ml of 1×10^3 cfu/ml culture of P. aeruginosa. The plates were incubated for 18-24 hrs at 37±1° C. The antibacterial activity was determined by calculating the difference in log 10 colony-forming units (cfu) between control and test samples (i.e., log 10 reduction).

[8] = Experiment 1, S. aureus 10^7 cfu/ml, T, B, F, V each 0.1 % w/w, CHG 0.12 % w/w
[9] = Experiment 2, S. aureus 10^7 cfu/ml, each 0.1 % w/w

Molecule: N=C(NCCCCCCNC(=N)NC(=N)Nc1ccc(Cl)cc1)NC(=N)Nc1ccc(Cl)cc1 [CHX (0.06%)]
- Log10 Growth (S. aureus [1]; Table 10, in oral rinse base, control growth 7.29): 5.60 log10
- Log10 Reduction (S. aureus [1]; Table 10, in oral rinse base, reduction from control (PBS)): 1.69 log10

Molecule: [H]/N=C(\N/C(=N/[H])NCCCCCCNC(=N)NC(=N)Nc1ccc(Cl)cc1)Nc1ccc(Cl)cc1 [Chlorhexidine (CHG)]
- Log reduction compared to control (S. aureus [2]; [8]): 0.73 log

Molecule: Cc1ccc(C(C)C)c(O)c1 [T (Thymol)]
- Log reduction compared to control (S. aureus [2]; [8]): 1.29 log
- Log reduction compared to control (S. aureus [2]; [9]): 1.29 log

Molecule: [H]/N=C(\N/C(=N/[H])NCCCCCCNC(=N)NC(=N)Nc1ccc(Cl)cc1)Nc1ccc(Cl)cc1 [chlorhexidine]
- synergistic antibacterial activity of botanical extracts and biguanides (in words) (S. aureus [1]; Example 10): did not show such synergism
- synergistic activity with chlorhexidine (in words) (S. aureus [2]; 10^7 cfu/ml): combination of either fennel seed oil and thymol or fennel seed oil, thymol and vanilla oil with chlorhexidine also exhibited synergistic activity
- synergistic activity with chlorhexidine (in words) (S. aureus [2]; 10^7 cfu/ml, listed as Chlorhexidine): exhibits synergistic activity when combined with either thymol or basil oil
- adverse effects [3]: irritation of the oral mucosa, discoloration of teeth and altered taste perception
- cytotoxicity [4]: cytotoxic
- cytotoxicity [5]: cytotoxic
- risk of acquiring VAP [6]: can reduce the risk of acquiring VAP

Molecule: benzalkonium chloride [BAC]
- antibacterial activity, effect of combining actives (in words) ([7]; Example 1, actives in base formulation): enhanced the activity of essential oil mixtures containing thymol
- antibacterial activity, effect of combining actives (in words) ([7]; Example 4): enhances the activity of essential oils (CN+LG+T)
- Log reduction from control growth ([7]; Table 1, MRSA, conc. active agent 0.13 % w/w): 0.05 log10
- Log reduction from control growth ([7]; Table 2, MRSA, conc. active agent 0.13 % w/w): 0.05 log10
- Log reduction from control growth ([7]; Table 5A, MRSA, conc. active agent 0.6 % w/w): 0.5 log10

Molecule: pentanediol
- antibacterial activity, effect of combining actives (in words) (P. aeruginosa): enhanced the activity of low concentrations of essential oils and lemon extract

Molecule: polyhexamethylene biguanide [PHMB]
- antibacterial activity, effect of combining actives (in words) ([7]; Example 1, PHMB at 0.06%): showed synergistic activity with essential oils
- Log reduction from control growth ([7]; Table 1, MRSA, conc. active agent 0.012 % w/w): 0.4 log10
- Log reduction from control growth ([7]; Table 1, MRSA, conc. active agent 0.06 % w/w): 3.1 log10
- Log reduction from control growth ([7]; Table 2, MRSA, conc. active agent 0.012 % w/w): 0.4 log10
- Log reduction from control growth ([7]; Table 5B, MRSA, conc. active agent 0.06 % w/w): 4.0 log10
- antibacterial activity, effect of combining actives (in words) (P. aeruginosa): enhanced the activity of low concentrations of essential oils and lemon extract
- synergistic activity with PHMB (in words) (S. aureus [2]; Experiment 2, Base A, 10^7 cfu/ml): exhibited synergistic activity when combined with either thymol or vanilla oil; also recorded: combination of either fennel seed oil and thymol or fennel seed oil, thymol and vanilla oil with PHMB also exhibited synergistic activity
- Log reduction compared to control (S. aureus [2]; [9]): 1.96 log
